Experimental data as given in ChEMBL document CHEMBL1201862, “PubChem BioAssay data set” (2004).
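Method: 48-hour compound exposure of cells in 96-well plates, five concentrations, linear interpolation of endpoints. The concentration for 50% growth inhibition is given as GI50.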 Activity calls are given as the source filed them. Cut-off read from the data, not from the text of the source: active = GI50 up to about 1.1 µM and inactive = higher.

Experiments:
Experiment in all cases: DTP human tumour cell line panel, 48 h
[1] = test system: 786-0
[2] = test system: A498
[3] = test system: ACHN
[4] = test system: BT-549
[5] = test system: CAKI-1
[6] = test system: CCRF-CEM
[7] = test system: COLO 205
[8] = test system: DU-145
[9] = test system: EKVX
[10] = test system: HCC 2998
[11] = test system: HCT-116
[12] = test system: HCT-15
[13] = test system: HL-60
[14] = test system: HOP-62
[15] = test system: HOP-92
[16] = test system: HT-29
[17] = test system: Hs-578T
[18] = test system: IGROV-1
[19] = test system: K562
[20] = test system: KM12
[21] = test system: LOX IMVI
[22] = test system: M14
[23] = test system: MCF7
[24] = test system: MDA-MB-231
[25] = test system: MDA-MB-435
[26] = test system: MOLT-4
[27] = test system: NCI-H226
[28] = test system: NCI-H23
[29] = test system: NCI-H460
[30] = test system: NCI/ADR-RES
[31] = test system: OVCAR-4
[32] = test system: OVCAR-8
[33] = test system: PC-3
[34] = test system: RPMI-8226
[35] = test system: RXF 393
[36] = test system: SF-268
[37] = test system: SF-295
[38] = test system: SF-539
[39] = test system: SK-MEL-28
[40] = test system: SK-MEL-2
[41] = test system: SK-MEL-5
[42] = test system: SK-OV-3
[43] = test system: SNB-19
[44] = test system: SNB-75
[45] = test system: SR
[46] = test system: SW-620
[47] = test system: T47D
[48] = test system: TK-10
[49] = test system: U-251
[50] = test system: UACC-257
[51] = test system: UACC-62
[52] = test system: UO-31
[53] = test system: A549
[54] = test system: Malme-3M
[55] = test system: NCI-H522
[56] = test system: OVCAR-3
[57] = test system: OVCAR-5
[58] = test system: SN12C

CC(=O)Nc1ccc(-c2nc3ccccc3s2)cc1
GI50 [1]: 24000 nM (inactive)
GI50 [2]: 13400 nM (inactive)
GI50 [3]: 32400 nM (inactive)
GI50 [4]: > 10000 nM (inactive)
GI50 [5]: 22800 nM (inactive)
GI50 [6]: 64100 nM (inactive)
GI50 [7]: 58900 nM (inactive)
GI50 [8]: 4900 nM (inactive)
GI50 [9]: 85100 nM (inactive)
GI50 [10]: 73800 nM (inactive)
GI50 [11]: 86700 nM (inactive)
GI50 [12]: 81500 nM
GI50 [13]: 81700 nM (inactive)
GI50 [14]: 20900 nM (inactive)
GI50 [15]: 55500 nM (inactive)
GI50 [16]: 73100 nM (inactive)
GI50 [17]: 40300 nM (inactive)
GI50 [18]: 47600 nM (inactive)
GI50 [19]: 1960 nM (inactive)
GI50 [20]: 35300 nM (inactive)
GI50 [21]: 36900 nM (inactive)
GI50 [22]: 63100 nM (inactive)
GI50 [23]: 67500 nM (inactive)
GI50 [24]: 26800 nM (inactive)
GI50 [25]: 97500 nM (inactive)
GI50 [26]: 20200 nM (inactive)
GI50 [27]: 44800 nM (inactive)
GI50 [28]: 52100 nM (inactive)
GI50 [29]: 36100 nM (inactive)
GI50 [30]: 28700 nM (inactive)
GI50 [31]: 29400 nM (inactive)
GI50 [32]: 35400 nM (inactive)
GI50 [33]: 64700 nM (inactive)
GI50 [34]: > 100000 nM (inactive)
GI50 [35]: 23600 nM (inactive)
GI50 [36]: 51300 nM (inactive)
GI50 [37]: 29600 nM (inactive)
GI50 [38]: 26200 nM (inactive)
GI50 [39]: 71900 nM (inactive)
GI50 [40]: 57400 nM (inactive)
GI50 [41]: > 100000 nM (inactive)
GI50 [42]: 21200 nM (inactive)
GI50 [43]: 33400 nM (inactive)
GI50 [44]: 30800 nM (inactive)
GI50 [45]: 45600 nM (inactive)
GI50 [46]: 53600 nM (inactive)
GI50 [47]: 31100 nM (inactive)
GI50 [48]: 57800 nM (inactive)
GI50 [49]: 27500 nM (inactive)
GI50 [50]: > 100000 nM (inactive)
GI50 [51]: 66700 nM (inactive)
GI50 [52]: 45500 nM (inactive)

CC(=O)c1cc2c(s1)C(=O)c1sccc1C2=O
GI50 [1]: 195 nM (active)
GI50 [2]: 1260 nM (inactive)
GI50 [53]: 207 nM (active)
GI50 [3]: 20.9 nM (active)
GI50 [4]: 18.4 nM (active)
GI50 [5]: 212 nM (active)
GI50 [6]: 39.2 nM (active)
GI50 [7]: 1310 nM (inactive)
GI50 [8]: 55.3 nM (active)
GI50 [9]: 118 nM (active)
GI50 [10]: 218 nM (active)
GI50 [11]: 69.8 nM (active)
GI50 [12]: 21.4 nM
GI50 [14]: 43.4 nM (active)
GI50 [15]: 294 nM (active)
GI50 [16]: 202 nM (active)
GI50 [17]: 36.5 nM (active)
GI50 [18]: 168 nM (active)
GI50 [19]: 18 nM (active)
GI50 [20]: 118 nM (active)
GI50 [21]: 10.2 nM (active)
GI50 [22]: 27.4 nM (active)
GI50 [23]: 30.1 nM (active)
GI50 [24]: 34.6 nM (active)
GI50 [25]: < 10 nM (active)
GI50 [26]: 48.6 nM (active)
GI50 [54]: 16.3 nM (active)
GI50 [27]: 198 nM (active)
GI50 [28]: 18.4 nM (active)
GI50 [29]: 90.8 nM (active)
GI50 [55]: 17.5 nM (active)
GI50 [30]: 56 nM (active)
GI50 [56]: < 14 nM (active)
GI50 [31]: 70.6 nM (active)
GI50 [57]: 66.4 nM (active)
GI50 [32]: 73.8 nM (active)
GI50 [33]: 56.8 nM (active)
GI50 [34]: 39.2 nM (active)
GI50 [35]: 25.4 nM (active)
GI50 [36]: 26.7 nM (active)
GI50 [37]: 40 nM (active)
GI50 [38]: 18.1 nM (active)
GI50 [39]: 14 nM (active)
GI50 [40]: 76 nM (active)
GI50 [41]: < 11.3 nM (active)
GI50 [42]: 1730 nM (inactive)
GI50 [58]: 15.6 nM (active)
GI50 [43]: 76.6 nM (active)
GI50 [44]: 20.4 nM (active)
GI50 [45]: 13.3 nM (active)
GI50 [46]: 56.9 nM (active)
GI50 [47]: 222 nM (active)
GI50 [48]: 212 nM (active)
GI50 [49]: 17 nM (active)
GI50 [50]: 14.6 nM (active)
GI50 [51]: 33.3 nM (active)
GI50 [52]: 31.4 nM (active)

CCCc1cn2c(/C=N/NC(=N)N)c(-c3cc([N+](=O)[O-])c(Cl)cc3Cl)nc2s1
GI50 [1]: 1580 nM (inactive)
GI50 [2]: 1550 nM (inactive)
GI50 [53]: 1480 nM (inactive)
GI50 [3]: 1770 nM (inactive)
GI50 [4]: 2150 nM (inactive)
GI50 [5]: 1770 nM (inactive)
GI50 [6]: 216 nM (active)
GI50 [7]: 1480 nM (inactive)
GI50 [8]: 1820 nM (inactive)
GI50 [11]: 1320 nM (inactive)
GI50 [12]: 1660 nM
GI50 [13]: 1760 nM (inactive)
GI50 [14]: 1580 nM (inactive)
GI50 [15]: 1690 nM (inactive)
GI50 [16]: 1220 nM (inactive)
GI50 [17]: 1850 nM (inactive)
GI50 [18]: 1690 nM (inactive)
GI50 [19]: 1230 nM (inactive)
GI50 [20]: 1500 nM (inactive)
GI50 [21]: 1410 nM (inactive)
GI50 [22]: 1740 nM (inactive)
GI50 [23]: 1400 nM (inactive)
GI50 [24]: 1630 nM (inactive)
GI50 [25]: 1800 nM (inactive)
GI50 [26]: 170 nM (active)
GI50 [27]: 1820 nM (inactive)
GI50 [28]: 1670 nM (inactive)
GI50 [29]: 1720 nM (inactive)
GI50 [55]: 2180 nM (inactive)
GI50 [30]: 1990 nM (inactive)
GI50 [56]: 1500 nM (inactive)
GI50 [31]: 1460 nM (inactive)
GI50 [57]: 1750 nM (inactive)
GI50 [32]: 1540 nM (inactive)
GI50 [33]: 1670 nM (inactive)
GI50 [34]: 1320 nM (inactive)
GI50 [35]: 1900 nM (inactive)
GI50 [36]: 1690 nM (inactive)
GI50 [37]: 1730 nM (inactive)
GI50 [38]: 1880 nM (inactive)
GI50 [40]: 1870 nM (inactive)
GI50 [41]: 1610 nM (inactive)
GI50 [42]: 1910 nM (inactive)
GI50 [58]: 1770 nM (inactive)
GI50 [43]: 1480 nM (inactive)
GI50 [44]: 1710 nM (inactive)
GI50 [45]: 1450 nM (inactive)
GI50 [46]: 1610 nM (inactive)
GI50 [47]: 1380 nM (inactive)
GI50 [48]: 1120 nM (inactive)
GI50 [49]: 1580 nM (inactive)
GI50 [50]: 1660 nM (inactive)
GI50 [51]: 1770 nM (inactive)
GI50 [52]: 1790 nM (inactive)

COP(=O)(OC)[C@H](O)[C@H]1C[C@@H]1c1ccccc1
GI50 [2]: > 100000 nM (inactive)
GI50 [53]: > 100000 nM (inactive)
GI50 [3]: > 100000 nM (inactive)
GI50 [4]: > 100000 nM (inactive)
GI50 [5]: > 100000 nM (inactive)
GI50 [7]: > 100000 nM (inactive)
GI50 [8]: > 100000 nM (inactive)
GI50 [9]: > 100000 nM (inactive)
GI50 [10]: > 100000 nM (inactive)
GI50 [12]: > 100000 nM
GI50 [13]: > 100000 nM (inactive)
GI50 [14]: > 100000 nM (inactive)
GI50 [15]: 17400 nM (inactive)
GI50 [16]: > 100000 nM (inactive)
GI50 [17]: 18900 nM (inactive)
GI50 [18]: > 100000 nM (inactive)
GI50 [19]: > 100000 nM (inactive)
GI50 [20]: > 100000 nM (inactive)
GI50 [21]: > 100000 nM (inactive)
GI50 [22]: > 100000 nM (inactive)
GI50 [23]: > 100000 nM (inactive)
GI50 [24]: > 100000 nM (inactive)
GI50 [25]: > 100000 nM (inactive)
GI50 [26]: > 100000 nM (inactive)
GI50 [54]: > 100000 nM (inactive)
GI50 [27]: > 100000 nM (inactive)
GI50 [28]: > 100000 nM (inactive)
GI50 [29]: > 100000 nM (inactive)
GI50 [55]: > 100000 nM (inactive)
GI50 [30]: > 100000 nM (inactive)
GI50 [56]: > 100000 nM (inactive)
GI50 [31]: > 100000 nM (inactive)
GI50 [57]: > 100000 nM (inactive)
GI50 [32]: > 100000 nM (inactive)
GI50 [33]: > 100000 nM (inactive)
GI50 [34]: > 100000 nM (inactive)
GI50 [35]: > 100000 nM (inactive)
GI50 [36]: > 100000 nM (inactive)
GI50 [37]: > 100000 nM (inactive)
GI50 [39]: > 100000 nM (inactive)
GI50 [40]: > 100000 nM (inactive)
GI50 [41]: > 100000 nM (inactive)
GI50 [42]: > 100000 nM (inactive)
GI50 [43]: > 100000 nM (inactive)
GI50 [44]: > 100000 nM (inactive)
GI50 [46]: > 100000 nM (inactive)
GI50 [47]: > 100000 nM (inactive)
GI50 [48]: > 100000 nM (inactive)
GI50 [49]: > 100000 nM (inactive)
GI50 [50]: > 100000 nM (inactive)
GI50 [51]: > 100000 nM (inactive)
GI50 [52]: > 100000 nM (inactive)
